Assay results: patent publication US20260315434A1, “USE OF GUAIACOL SESQUITERPENE LACTONE DERIVATIVES” (NANJING UNIVERSITY OF CHINESE MEDICINE, priority 2023, published 2026)

Experiments:
T cells / MDSCs = test: Promotion of T cell proliferation in a co-culture model of MDSCs and T cells; format: cell-based, mouse; conditions: 1 μM, MDSCs treated 12 hours, co-culture of MDSCs and T cells, compared to the control group
Procedure, shortened: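 Bone-marrow MDSCs, after compound treatment, were co-cultured 48 h at 1:1 with CFDA-SE-labelled (10 μM solution), activated splenic T cells. Proliferation of CD3+ T cells was read by flow cytometry.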

H22 cells = test: Antitumor effect in H22 mouse hepatocellular carcinoma subcutaneous xenograft model; format: in vivo, BALB/c mice; conditions: oral, 2 weeks
[1] = Water solubility testing of compounds (HPLC); conditions: deionized water, 37 °C
4T1 cells = test: Antitumor effect in 4T1 mouse mammary carcinoma xenograft model; format: in vivo, BALB/c mice; conditions: oral, 3 weeks
Description: 4T1 cells were cultured and expanded in vitro. […] A 100 μL aliquot of this suspension was injected subcutaneously into the left forelimb axilla of female BALB/c mice. […] Daily oral administration was performed for 3 weeks. During the treatment period, mouse body weight and tumor diameter were measured daily. At the end of the experiment, mice were euthanized by cervical dislocation, and tumors were removed for weighing. Tumor volume (TV) was calculated using the formula: TV=½×a×b^2, where a represents the longest diameter of the tumor and b represents the shortest diameter.

T cells = test: Proportion of T cells in tumor and spleen of H22 xenograft mice (flow cytometry); format: in vivo, BALB/c mice
Description: Once all tumors were dissected, nail-sized tumor pieces were transferred to 1.5 mL Eppendorf tubes and minced with scissors. Transfer the minced tumor tissue suspension to a 15 mL centrifuge tube containing 3-5 mL of digestive enzymes (Collagenase IV 1 mg/mL, Hyaluronidase 1 mg/mL, DNase 120 U/mL). Incubate at 37° C. on a shaking incubator at 200 rpm for 1 hour. After digestion, pass the mixture through a 200-mesh sieve to obtain the tumor cell suspension. Centrifuge the resulting tumor suspension at 1600 rpm for 5 min, aspirate the supernatant, resuspend cells in 1 mL of 1×PBS per tube. Transfer the cell suspension to a 1.5 mL Eppendorf tube, centrifuge at 1600 rpm for 5 min, remove the supernatant, resuspend cells in 100 μL of 1×PBS per tube, add 1 μL of dead/live dye to each tube, mix thoroughly, and incubate at room temperature in the dark for 15 min. […] Position the spleen on a 200-mesh cell strainer. Gently press the spleen using a 10 mL syringe needle. […] Transfer the splenocyte suspension into a 15 mL centrifuge tube. Centrifuge at 1600 rpm for 5 min to collect cells. Wash once with 1×PBS. Add 3 mL red blood cell lysis buffer (diluted with ddH2O) to each tube and incubate for 5 min. After lysis, add 10 mL 1×PBS to each tube to terminate lysis. Centrifuge at 1600 rpm for 5 min. Add 1 mL 1×PBS to each 15 mL centrifuge tube, transfer to 1.5 mL EP tubes, and centrifuge at 1600 rpm for 5 min. Add 1×PBS to each tube containing stained tumor cells and lysed spleen cells for one wash, centrifuge at 1600 rpm for 5 min, and remove the supernatant. Resuspend tumor cells and spleen cells separately in 100 μL 1×PBS. Add 1 μL FcX™ antibody to each tube and incubate at room temperature in the dark for 10 min. After incubation, sequentially add 1 μL each of CD45, CD3, and CD8 antibodies to each tube. Incubate at 4° C. in the dark for 30 min. After staining, wash once with 1 mL PBS. Centrifuge at 1600 rpm for 5 min. Discard the supernatant. Resuspend cells in 300 μL 1×PBS. Filter the cell suspension into a flow cytometry tube and proceed to instrument analysis.

Hepa1-6 cells = test: Antitumor effect in Hepa1-6 mouse hepatocellular carcinoma subcutaneous xenograft model; format: in vivo, C57BL/6 mice; conditions: 40 μmol/kg/d oral, 2 weeks
MDSCs = test: Proportion of MDSCs in tumor and spleen of H22 xenograft mice (flow cytometry); format: in vivo, BALB/c mice
Description: Once all tumors were dissected, nail-sized tumor pieces were transferred to 1.5 mL Eppendorf tubes and minced with scissors. Transfer the minced tumor tissue suspension to a 15 mL centrifuge tube containing 3-5 mL of digestive enzymes (Collagenase IV 1 mg/mL, Hyaluronidase 1 mg/mL, DNase 120 U/mL). Incubate at 200 rpm and 37° C. for 1 hour. After digestion, pass the mixture through a 200-mesh sieve to obtain the tumor cell suspension. Centrifuge the resulting tumor suspension at 1600 rpm for 5 min, aspirate the supernatant, resuspend cells in 1 mL of 1×PBS per tube. Transfer the cell suspension to a 1.5 mL Eppendorf tube, centrifuge at 1600 rpm for 5 min, remove the supernatant, resuspend cells in 100 μL of 1×PBS per tube, add 1 μL of dead/live dye to each tube, mix thoroughly, and incubate at room temperature in the dark for 15 min. […] Position the spleen on a 200-mesh cell strainer. Gently press the spleen using a 10 mL syringe needle. […] Transfer the washed splenocyte suspension into a 15 mL centrifuge tube. Centrifuge at 1600 rpm for 5 min to collect cells. Wash once with 1×PBS. Add 3 mL red blood cell lysis buffer (diluted with ddH2O) to each tube and incubate for 5 min. After lysis, add 10 mL 1×PBS to each tube to terminate lysis. Centrifuge at 1600 rpm for 5 min. Add 1 mL 1×PBS to each 15 mL centrifuge tube, transfer to 1.5 mL EP tubes, and centrifuge at 1600 rpm for 5 min. Add 1 mL 1×PBS to each tube containing stained tumor cells and lysed spleen cells for one wash, centrifuge at 1600 rpm for 5 min, and remove the supernatant. Resuspend tumor cells and spleen cells separately in 100 μL 1×PBS. Add 1 μL FcX™ antibody to each tube and incubate at room temperature in the dark for 10 min. After incubation, sequentially add 1 μL each of CD45, CD11b, Gr1 antibodies. Incubate at 4° C. in the dark for 30 min. After incubation, wash once with 1×PBS, discard the supernatant, resuspend cells in 300 μL 1×PBS, filter the membrane into a flow cytometry tube, and proceed to instrument analysis.

[2] = system: inflammatory factors (TNF, IL-6, IL-1) in renal tissue; test: Lupus nephritis, renal inflammatory factor mRNA; format: in vivo, MRL/lpr mice; conditions: 3 mg/kg, oral, 8 weeks
Description: Experimental animals: MRI/MpJ and MRL/lpr mice, female, 10 weeks old, purchased from GemPharmatech LLC. Production license number: SCXK(Su)2023-0009. […] They were acclimated for 7 days before use in experiments.
Oral administration was performed continuously for 8 weeks.
Allow blood to stand at room temperature for 2 hours, then centrifuge at 3000 rpm for 20 minutes. Aspirate the serum, aliquot it, and store at −70° C. for future use. After blood collection, euthanize mice by cervical dislocation. Open the abdominal cavity, remove kidneys, and dissect out perirenal fat and capsules. […] Store remaining tissues at −70° C. for future use.

[3] = system: inflammatory cytokines (IL-1β, IL-6) in lung tissue; test: LPS-induced acute lung injury, inflammatory cytokines by ELISA; format: in vivo, C57BL/6 mice; conditions: 5 mg/kg; LPS 2411.32
Description: After a 7-day acclimatization period, mice were used for subsequent experiments.
The abdomen was opened, and the lungs were removed. They were rinsed twice with pre-chilled PBS. […] The remaining tissue was stored at −70° C. for future use.
Data Statistics: All data are expressed as means S.E.M. Statistical differences between groups were analyzed using one-way ANOVA and t-tests in SPSS software. P values less than 0.05 were considered statistically significant.

[4] = system: inflammatory factors (TNF, IL-6, IL-1) in renal tissue; test: LPS-induced sepsis, renal inflammatory factor mRNA (Q-PCR); conditions: 5 mg/kg
Description: (§3) They were acclimated for 7 days before experimentation.
(§4) The normal and model groups received equal volumes of solvent (0.5% CMC-Na) via oral gavage.
(§5) Specimen Collection: One hour after the final drug administration, mice were euthanized by cervical dislocation. The abdominal cavity was opened, and the lungs, liver, and kidneys were removed. These organs were rinsed twice with pre-chilled PBS. Tissue samples were excised from the mouse lungs, left hepatic lobe, and kidneys. […] Remaining tissues were stored at −70° C. for future use.
(§6) Accurately weigh 20 mg of kidney, lung, and liver tissue. Rinse with pre-chilled PBS solution, cut into small pieces using ophthalmic scissors, and place into a glass homogenizer. Add 1 mL of Trizol reagent and grind to prepare tissue homogenate. Transfer the homogenate to a RNAse-free 1.5 mL EP tube and lyse on ice for 10 min. Add 200 μL chloroform, vortex vigorously, and let stand on ice for 3-5 min. Centrifuge at 12,000 rpm and 4° C. for 15 min. Carefully transfer the supernatant to a new RNAse-free 1.5 mL EP tube. Add an equal volume of pre-chilled isopropanol, incubate on ice for 30 min, then centrifuge at 12,000 rpm and 4° C. for 10 min. Discard the supernatant. […] Subsequently, dissolve the pellet in 10 μL DEPC-treated water. Dilute 1 μL of the total RNA solution 100-fold and measure the OD values at 260 nm and 280 nm using a full-wavelength microplate reader.
(§7) Following the method described in the kit manual, subsequent experiments were conducted using a 20 μL reverse transcription reaction system:
(§8) Primers were designed based on the nucleotide sequence of the mouse in GenBank and synthesized.
(§9) Perform subsequent experiments using a 20 μL reaction system according to the kit instructions:
(§10) After adding the above reagents to micro reaction tubes, seal them with the cap and place them in the Q-PCR instrument. Set the parameters according to the following reaction conditions to perform the amplification experiment.
(§11) Record the threshold cycle (Ct) values for each group and perform calculation and analysis using the 2^−ΔΔCt method (setting the expression level of the reference gene Gapdh as 1 to correct the expression levels of the target genes).
(§12) Data Statistics: All data are presented as Means±S.E.M. Analysis of variance (ANOVA) was performed to assess the significance of differences. Groups showing significant differences in ANOVA were further compared using one-way ANOVA and Dunnett's test. A P-value <0.05 was considered statistically significant.

[5] = system: mouse ear atopic dermatitis; test: MC903-induced atopic dermatitis of the ear, ointment: ear thickness, dermatitis score, lesions; format: in vivo; conditions: 1% ointment, 7 days; max score 12
Description: (1) Preparation of Oil Phase: Weigh white petrolatum, light liquid paraffin, glyceryl monostearate, ethylparaben, and cetyl alcohol. Heat to 65° C. while stirring until dissolved. Slowly add the dissolved active pharmaceutical ingredient (API) while continuing to stir until uniformly mixed. Set aside.
(2) Aqueous Phase Preparation: Weigh purified water and Tween 80, heat to 70° C., stir to dissolve, and set aside;
(3) Emulsification: Slowly add the aqueous phase to the oil phase while maintaining 65° C., homogenize, and continue stirring for 30 min;
(4) Cooling: Stop heating, continue stirring, gradually reduce to room temperature, cool to form an ointment, and fill containers.
(§1) Dissolve these substances in a small amount of propylene glycol, then place the resulting solution into the aforementioned pre-cooled blank ointment base. Finally, add water to make the total mass up to 10 g, and grind the mixture thoroughly in a mortar.
(§2) Except for the Normal group, all other groups underwent AD modeling: 20 μL of MC903 solution (also known as calcipotriol, purchased from Shanghai Yuanye Biotechnology Co., Ltd., used for inducing atopic models) was applied to each mouse's ears once daily for 14 consecutive days to induce the atopic dermatitis model. […] Measure ear thickness changes every 2 days using an electronic caliper before modeling and after treatment initiation.
Skin Lesion Severity Score: Daily skin lesion severity was assessed in mice using the following criteria, primarily encompassing four symptoms: 1) erythema/hemorrhage; 2) dryness; 3) desquamation/erosion; 4) edema. Each symptom was scored from 0 to 3 based on lesion severity: no symptoms=0 points, mild=1 point, moderate=2 points, severe=3 points. […] Higher scores indicated more severe lesions, with a maximum score of 12. Statistical analysis was performed on the data.

[6] = system: IgE and inflammatory markers of AD mice; test: MC903-induced atopic dermatitis, oral administration: serum IgE and ear mRNA of inflammatory markers; format: in vivo, mouse; design: scale not given here; conditions: 5 mg/kg
Description: as §2

[7] = system: inflammatory factors (TNF, IL-6, IL-1) in liver tissue; test: LPS-induced sepsis, hepatic inflammatory factor mRNA (Q-PCR); conditions: 5 mg/kg
Description: as §3, §4, §5, §6, §7, §8, §9, §10, §11, §12

[8] = system: inflammatory cytokines (TNF, IL-6, IL-1) in lung tissue; test: LPS-induced sepsis, lung inflammatory factor mRNA (Q-PCR); conditions: 5 mg/kg
Description: as §3, §4, §5, §6, §7, §8, §9, §10, §11, §12

[9] = system: inflammatory markers in the ears of AD mice; test: MC903-induced atopic dermatitis of the ear, ointment: mRNA of inflammatory markers; format: in vivo, mouse; conditions: 1% ointment
Description: as §1, §2

[10] = 40 μmol/kg/day, oral, 2 weeks, spleen, flow cytometry
[11] = 40 μmol/kg/day, oral, 2 weeks, tumor, flow cytometry
[12] = compared with solvent control, result in words

C=C1C(=O)O[C@H]2[C@H]1CCC(C)=C1CC[C@@](C)(OC(=O)NCCN3CCOCC3)[C@@H]12 [Compound 99]
T-cell proliferation rate (%) (T cells / MDSCs): + (T-cell proliferation rate within the 0-20% range compared to the control group)
Tumor Suppression Rate (%) (H22 cells; 40 μmol/kg/day, H22 xenograft): 25.18%
Tumor weight (H22 cells; 40 μmol/kg/day, H22 xenograft): 6.40 ± 1.59 g
tumor-inhibiting effect, H22 (H22 cells; result in words): tumor-inhibiting effects
Water-solubility [1]: 220.8 mg/mL
Tumor inhibition rate (%) (4T1 cells; 40 μmol/kg/day, 4T1): 20.94%
Tumor weight (4T1 cells; 40 μmol/kg/day, 4T1): 1.43 ± 0.19 g
antitumor effect, 4T1 (4T1 cells; result in words): no significant antitumor effects
Spleen T cells (%) (T cells; [10]): 31.71 ± 2.95 %
Tumor T cells (%) (T cells; [11]): 22.81 ± 5.33 %
proportion of T cells in tumor tissues and spleens (T cells; [12]): significantly increased
Tumor Inhibition Rate (Hepa1-6 cells): 80.05%
Tumor weight (Hepa1-6 cells; solvent 0.92 ± 1.41): 0.18 ± 0.40 g
Spleen MDSCs (%) (MDSCs; [10]): 30.90 ± 10.21 %
Tumor-associated MDSCs (%) (MDSCs; [11]): 34.85 ± 7.99 %
proportion of MDSCs in tumor tissues and spleens (MDSCs; [12]): significantly reduced

C[C@@H]1C[C@H]2[C@@H]3CCC4=CC(=O)C=C[C@]4(C)[C@@]3(F)[C@@H](O)C[C@]2(C)[C@@]1(O)C(=O)CO [Dex, Dexamethasone, reference compound]
Il1 mRNA expression, kidney [2]: 3.47 ± 0.35
Il6 mRNA expression, kidney [2]: 1.12 ± 0.24
Tnf mRNA expression, kidney [2]: 1.94 ± 0.30
IL-1β [3]: 1873.00 ± 86.52 pg/mL
Il1 mRNA expression, kidney ([4]; LPS 7.99): 6.05 ± 1.03
Il6 mRNA expression, kidney ([4]; LPS 8.80): 5.76 ± 0.72
Dermatitis Score, ear [5]: 3.50 ± 0.22
I14 mRNA expression, ear [6]: 2.59 ± 0.38
I113 mRNA expression, ear [6]: 1.89 ± 0.20
I131 mRNA expression, ear [6]: 2.06 ± 0.20
Il6 mRNA expression, liver ([7]; LPS 11.34): 4.27 ± 1.33
Il1 mRNA expression, liver ([7]; LPS 11.52): 7.54 ± 0.70
Il1 mRNA expression, lung ([8]; LPS 19.01): 7.20 ± 0.36
Il6 mRNA expression, lung ([8]; LPS 20.34): 9.88 ± 0.80
I14 mRNA expression, ear [9]: 1.35 ± 0.30
I113 mRNA expression, ear [9]: 1.91 ± 0.39
I131 mRNA expression, ear [9]: 1.86 ± 0.44
Il1 mRNA expression, ear [9]: 12.69 ± 4.22
TSLP mRNA expression, ear [9]: 1.30 ± 0.17
